What was measured:
[1] = biological target: human α1β3γ2 GABAA receptors (Homo sapiens, UniProt P14867+P28472); test: Modulation of [3H]muscimol binding to GABAA receptor membranes from HEK293 cells; details: 2 nM [3H]muscimol
[2] = biological target: purified human α1β3γ2 GABAA receptor (Homo sapiens, UniProt P14867+P28472); format: binding
[3] = Partition coefficient; format: physicochemical; details: difference to alphaxalone
[4] = biological target: purified α1β3γ2 GABAARs (Homo sapiens, UniProt P14867+P28472); format: binding; details: 3.5 μM [3H]azietomidate
Chain of purified α1β3γ2 GABAARs (P14867 28-456): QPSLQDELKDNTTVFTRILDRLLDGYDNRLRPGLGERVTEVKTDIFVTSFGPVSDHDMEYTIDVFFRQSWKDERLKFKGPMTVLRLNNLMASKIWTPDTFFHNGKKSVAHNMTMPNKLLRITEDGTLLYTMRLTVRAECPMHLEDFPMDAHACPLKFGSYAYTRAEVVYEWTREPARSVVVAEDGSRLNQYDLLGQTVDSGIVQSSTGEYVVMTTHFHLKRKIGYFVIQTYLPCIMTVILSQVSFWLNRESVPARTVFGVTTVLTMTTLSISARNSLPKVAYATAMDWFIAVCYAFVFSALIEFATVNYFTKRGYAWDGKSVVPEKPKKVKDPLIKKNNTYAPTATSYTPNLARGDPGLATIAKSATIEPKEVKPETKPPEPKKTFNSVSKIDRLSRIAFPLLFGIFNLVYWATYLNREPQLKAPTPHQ
Chain of purified α1β3γ2 GABAARs (P28472 26-473): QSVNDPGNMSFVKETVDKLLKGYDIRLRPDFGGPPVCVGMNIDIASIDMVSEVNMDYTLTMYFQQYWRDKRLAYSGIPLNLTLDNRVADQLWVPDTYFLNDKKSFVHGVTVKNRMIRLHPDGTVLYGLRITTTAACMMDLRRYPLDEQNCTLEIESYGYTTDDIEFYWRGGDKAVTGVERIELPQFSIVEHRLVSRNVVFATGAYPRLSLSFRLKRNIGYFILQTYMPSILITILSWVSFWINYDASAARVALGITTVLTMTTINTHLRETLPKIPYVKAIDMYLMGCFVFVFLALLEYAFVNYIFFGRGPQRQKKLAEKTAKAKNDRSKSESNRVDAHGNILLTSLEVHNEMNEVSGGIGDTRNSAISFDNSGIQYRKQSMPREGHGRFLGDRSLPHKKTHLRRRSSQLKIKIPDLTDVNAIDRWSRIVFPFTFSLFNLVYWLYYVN
Chain of purified α1β3γ2 GABAARs (P18507 40-475 partner): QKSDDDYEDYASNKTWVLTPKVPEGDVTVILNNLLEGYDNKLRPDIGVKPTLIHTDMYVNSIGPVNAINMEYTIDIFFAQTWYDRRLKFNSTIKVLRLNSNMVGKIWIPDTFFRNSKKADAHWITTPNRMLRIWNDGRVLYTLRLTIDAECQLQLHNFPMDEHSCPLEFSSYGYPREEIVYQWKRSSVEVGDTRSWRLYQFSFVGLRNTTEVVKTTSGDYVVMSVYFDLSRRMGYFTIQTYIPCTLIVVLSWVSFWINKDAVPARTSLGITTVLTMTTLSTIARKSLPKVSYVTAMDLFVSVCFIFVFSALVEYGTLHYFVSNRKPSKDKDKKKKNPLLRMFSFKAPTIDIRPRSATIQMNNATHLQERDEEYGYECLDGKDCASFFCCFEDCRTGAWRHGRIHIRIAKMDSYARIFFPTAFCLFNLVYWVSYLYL

[5] = test system: GABAAR; details: read-out: Potentiation EC50; bulk phase concentration; cited from earlier work

Chain of human α1β3γ2 GABAA receptors (P14867 28-456): as the sequence (P14867 28-456) above
Chain of human α1β3γ2 GABAA receptors (P28472 26-473): as the sequence (P28472 26-473) above
Chain of human α1β3γ2 GABAA receptors (P18507 40-475 partner): as the sequence (P18507 40-475 partner) above
Chain of purified human α1β3γ2 GABAA receptor (P14867 28-456): as the sequence (P14867 28-456) above
Chain of purified human α1β3γ2 GABAA receptor (P28472 26-473): as the sequence (P28472 26-473) above
Chain of purified human α1β3γ2 GABAA receptor (P18507 40-475 partner): as the sequence (P18507 40-475 partner) above

CC(=O)[C@H]1CC[C@H]2[C@@H]3CC[C@H]4C[C@H](O)CC[C@]4(C)[C@H]3C3(C[C@]12C)N=N3 [11-aziAP, 11-Aziallopregnanolone]
Efficacy of modulation of [3H]muscimol binding [1]: 227 ± 2% | Hill coefficient of enhancement of [3H]muscimol binding [1]: 1.1 ± 0.2 | Enhancement of photolabeling by both probes ([3H]azietomidate, [3H]R-mTFD-MPAB) ([2]; 0.3 and 1 μM): to the same extent as GABA or alphaxalone

CC(=O)[C@H]1CC[C@H]2[C@@H]3CC[C@H]4C[C@H](O)CC[C@]4(C)[C@H]3[C@@H](OC(=O)c3c(F)c(F)c(N=[N+]=[N-])c(F)c3F)C[C@]12C [F4N3Bzox-AP, 11β-(4-Azido-2,3,5,6-tetrafluorobenzoyloxy)-3α-hydroxy-5α-pregnane-20-one]
Efficacy of modulation of [3H]muscimol binding [1]: 228 ± 4% | Hill coefficient of enhancement of [3H]muscimol binding [1]: 1.9 ± 0.1 | Higher lipophilicity as compared to alphaxalone [3]: ca. 1.5 log P units

CC(c1ccccc1)n1cncc1C(=O)OCCC1(C)N=N1 (stereo not drawn) [[^3H]azietomidate, reference compound]
Pharmacologically specific subunit photolabeling (inhibitable by etomidate) ([2]; [3H]azietomidate subunit photolabeling): 80% | α-subunits photolabeled [4]: 10%

CC(=O)[C@H]1CC[C@H]2[C@@H]3CC[C@H]4C[C@H](O)CC[C@]4(C)[C@H]3C(=O)C[C@]12C [alphaxalone, Alphaxalone]
EC50 [5]: 600 nM

Reference: article PMC6071317 (European journal of medicinal chemistry, 2017)
